A word on the pIC50: it is −log10 of the IC50, conventionally taken in molar units. Higher therefore signals a small IC50.

This note sets out measurements from patent US9884063B2, “Amido-substituted azole compounds” (Bayer Pharma Aktiengesellschaft, priority 2014, dated 2018).

pIC50: −log10 of the molar value. Counter-ions that a name gives are not always drawn.

The assay has as its system wildtype Wnt signaling cascade. Put plainly: HEK293 TOP Assay (Super TopFlash luciferase reporter, Wnt-3a stimulated). The format is cell-based. Particulars: Homo sapiens, HEK293, 16 h, HEK293 TOP reporter cell line, Wnt-3a at EC50, 16 hours incubation, compound dilution series 50 μM to 15 nM. The procedure: In order to discover and characterize small molecules which inhibit the wildtype Wnt pathway, a cellular reporter assay was employed. The corresponding assay cell was generated by transfection of the mammalian cell line HEK293 (ATCC, #CRL-1573) with the Super TopFlash vector (Morin, Science 275, 1997, 1787-1790; Molenaar et al., Cell 86 (3), 1996, 391-399). The HEK293 cell line is cultivated at 37° C. and 5% CO2 in DMEM (Life Technologies, #41965-039), supplemented with 2 mM glutamine, 20 mM HEPES, 1.4 mM pyruvate, 0.15% Na-bicarbonate and 10% foetal bovine serum (GIBCO, #10270). Stable transfectants were generated by selection with 300 μg/ml Hygromycin.
In preparation of the assay, the two cell lines were plated 24 hrs before beginning the test at 10000 cells per well in a 384 micro titre plate (MTP) in 30 μl growth medium. […] The recombinant human Wnt-3a was thereby applied between 2500 and 5 ng/ml in two-fold dilution steps.
Selective inhibitory activity for small molecules on the wildtype Wnt pathway was determined after parallel incubation of both (TOP and FOP) HEK293 reporter cell lines with a compound dilution series from 50 μM to 15 nM in steps of 3.16-fold dilutions in CAFTY buffer (130 mM sodium chloride, 5 mM potassium chloride, 20 mM HEPES, 1 mM magnesium chloride, 5 mM sodium bicarbonate, pH 7.4) containing 2 mM Ca^2+ and 0.01% BSA.
The compounds were thereby serially prediluted in 100% DMSO and thereafter 50 fold into the CAFTY compound dilution buffer (described above).
A general note: In a reporter assay the amount or activity of a reporter protein is the signal.
For `NC1CCN(C(=O)c2[nH]cnc2C(=O)Nc2ccc(NC(=O)c3ccc(F)cc3Cl)cc2)C1` (centres unmarked) [Example 285, 5-[(3-aminopyrrolidin-1-yl)carbonyl]-N-{4-[(2-chloro-4-fluorobenzoyl)amino]phenyl}-1H-imidazole-4-carboxamide hydrochloride salt], the pIC50 is 5.94.

For the compound `O=C(Nc1ccc(NC(=O)c2nc[nH]c2C(=O)N2CCNCC2)cc1)c1ccc(F)cc1Cl` [Example 289, N-{4-[(2-chloro-4-fluorobenzoyl)amino]phenyl}-5-(piperazin-1-ylcarbonyl)-1H-imidazole-4-carb oxamide hydrochloric acid salt], the pIC50 is 5.57.

The compound `CNC(=O)c1[nH]cnc1C(=O)Nc1ccc(NC(=O)c2ccc(F)cc2Cl)c(OC(F)(F)F)c1` [Example 291, N^4-{4-[(2-chloro-4-fluorobenzoyl)amino]-3-(trifluoromethoxy)phenyl}-N^5-methyl-1H-imidazole-4,5-dicarboxamide] had a pIC50 of 4.84.

On to `O=C(Nc1ccc(NC(=O)c2nc[nH]c2C(=O)NCC(F)(F)F)cc1OC(F)(F)F)c1ccc(F)cc1Cl` [Example 292, N^4-{4-[(2-chloro-4-fluorobenzoyl)amino]-3-(trifluoromethoxy)phenyl}-N^5-(2,2,2-trifluoroethyl)-1H-imidazole-4,5-dicarboxamide], for which the pIC50 was 4.96. The pIC50 values of the last two compounds are within 0.2 log units of each other.

For `CC1CN(CCNC(=O)c2[nH]cnc2C(=O)Nc2ccc(NC(=O)c3ccc(F)cc3Cl)cc2)CC(C)O1` (centres unmarked) [Example 301, N^4-{4-[(2-4-fluorochlorobenzoyl)amino]phenyl}-N^5-[2-(2,6-dimethylmorpholin-4-yl)ethyl]-1H-imidazole-4,5-dicarboxamide], the pIC50 is 5.92.

`CNC(=O)c1nc[nH]c1C(=O)Nc1ccc(NC(=O)c2ccc(OC)cc2)cc1` [Example 304, N^5-{4-[(4-methoxybenzoyl)amino]phenyl}-N^4-methyl-1H-imidazole-4,5-dicarboxamide]: the pIC50 was 4.94. Against the preceding compound, the pIC50 is 0.98 log units lower.

With `CNC(=O)c1nc[nH]c1C(=O)Nc1ccc(NC(=O)c2cccc(OC)c2)cc1` [Example 305, N^5-{4-[(3-methoxybenzoyl)amino]phenyl}-N^4-methyl-1H-imidazole-4,5-dicarboxamide], the pIC50 is 4.50.

For the compound `CNC(=O)c1nc[nH]c1C(=O)Nc1ccc(NC(=O)c2ccc(Cl)cc2)cc1` [Example 306, N^5-{4-[(4-chlorobenzoyl)amino]phenyl}-N^4-methyl-1H-imidazole-4,5-dicarboxamide], the pIC50 was 5.50.

The compound `CNC(=O)c1nc[nH]c1C(=O)Nc1ccc(NC(=O)c2ccc(Cl)c(Cl)c2)cc1` [Example 308, N^5-{4-[(3,4-dichlorobenzoyl)amino]phenyl}-N^4-methyl-1H-imidazole-4,5-dicarboxamide] had a pIC50 of 5.47.

The compound `CNC(=O)c1nc[nH]c1C(=O)Nc1ccc(NC(=O)c2ccc(Cl)cc2OC)cc1` [Example 310, N^5-{4-[(4-chloro-2-methoxybenzoyl)amino]phenyl}-N^4-methyl-1H-imidazole-4,5-dicarboxamide] had a pIC50 of 4.98. Against the preceding compound, the pIC50 is 0.49 log units lower.

Take `CNC(=O)c1nc[nH]c1C(=O)Nc1ccc(NC(=O)c2cccc(C#N)c2)cc1` [Example 311, N^5-{4-[(3-cyanobenzoyl)amino]phenyl}-N^4-methyl-1H-imidazole-4,5-dicarboxamide]: the negative logarithm of the IC50 (pIC50) is 4.30.

In the case of `CNC(=O)c1nc[nH]c1C(=O)Nc1ccc(NC(=O)c2ccoc2)cc1` [Example 312, N^5-{4-[(furan-3-ylcarbonyl)amino]phenyl}-N^4-methyl-1H-imidazole-4,5-dicarboxamide], the pIC50 was 4.30.

Compound `CNC(=O)c1nc[nH]c1C(=O)Nc1ccc(NC(=O)c2ccc(C(F)(F)F)cc2)cc1` [Example 316, N^4-methyl-N^5-(4-{[4-(trifluoromethyl)benzoyl]amino}phenyl)-1H-imidazole-4,5-dicarboxamide] gave a pIC50 of 4.87.

`CNC(=O)c1nc[nH]c1C(=O)Nc1ccc(NC(=O)c2cccc(N(C)C)c2)cc1` [Example 317, N^5-(4-{[3-(dimethylamino)benzoyl]amino}phenyl)-N^4-methyl-1H-imidazole-4,5-dicarboxamide] gave a negative logarithm of the IC50 (pIC50) of 4.30.

Turning to `CNC(=O)c1nc[nH]c1C(=O)Nc1ccc(NC(=O)c2cc(F)ccc2F)cc1` [Example 318, N^5-{4-[(2,5-difluorobenzoyl)amino]phenyl}-N^4-methyl-1H-imidazole-4,5-dicarboxamide], the pIC50 was 5.89.

Take `CNC(=O)c1nc[nH]c1C(=O)Nc1ccc(NC(=O)c2ccc(F)c(F)c2)cc1` [Example 320, N^5-{4-[(3,4-difluorobenzoyl)amino]phenyl}-N^4-methyl-1H-imidazole-4,5-dicarboxamide]: the pIC50 was 5.32. Against the preceding compound, the pIC50 is 0.57 log units lower.

In the case of `CNC(=O)c1nc[nH]c1C(=O)Nc1ccc(NC(=O)c2cc(F)cc(F)c2)cc1` [Example 321, N^5-{4-[(3,5-difluorobenzoyl)amino]phenyl}-N^4-methyl-1H-imidazole-4,5-dicarboxamide], the negative-log IC50 (pIC50) is 4.30.

Compound `CNC(=O)c1nc[nH]c1C(=O)Nc1ccc(NC(=O)c2c(F)ccc(F)c2F)cc1` [Example 323, N^4-methyl-N^5-{4-[(2,3,6-trifluorobenzoyl)amino]phenyl}-1H-imidazole-4,5-dicarboxamide] gave a pIC50 of 5.84. Compared with the last compound, the pIC50 is 1.54 log units higher.

As for `CNC(=O)c1nc[nH]c1C(=O)Nc1ccc(NC(=O)c2cccc(F)c2C)cc1` [Example 324, N^5-{4-[(3-fluoro-2-methylbenzoyl)amino]phenyl}-N^4-methyl-1H-imidazole-4,5-dicarboxamide], the pIC50 is 5.49. This pIC50 lies 0.35 log units lower than the previous one.

As for `CNC(=O)c1nc[nH]c1C(=O)Nc1ccc(NC(=O)c2ccc(C)c(F)c2)cc1` [Example 328, N^5-{4-[(3-fluoro-4-methylbenzoyl)amino]phenyl}-N^4-methyl-1H-imidazole-4,5-dicarboxamide], the pIC50 was 5.28.

Consider `CNC(=O)c1nc[nH]c1C(=O)Nc1ccc(NC(=O)c2ccco2)cc1` [Example 329, N^5-{4-[(furan-2-ylcarbonyl)amino]phenyl}-N^4-methyl-1H-imidazole-4,5-dicarboxamide], for which the pIC50 is 4.30.

Compound `CNC(=O)c1nc[nH]c1C(=O)Nc1ccc(NC(=O)c2cccc(F)c2)cc1` [Example 331, N^5-{4-[(3-fluorobenzoyl)amino]phenyl}-N^4-methyl-1H-imidazole-4,5-dicarboxamide] showed a pIC50 of 5.07.

`CNC(=O)c1nc[nH]c1C(=O)Nc1ccc(NC(=O)c2ccn(C)n2)cc1` [Example 332, N^4-methyl-N^5-(4-{[(1-methyl-1H-pyrazol-3-yl)carbonyl]amino}phenyl)-1H-imidazole-4,5-dicarboxamide] gave a pIC50 of 5.02.

Take `CNC(=O)c1nc[nH]c1C(=O)Nc1ccc(NC(=O)c2cc(C)cc(C)c2)cc1` [Example 335, N^5-{4-[(3,5-dimethylbenzoyl)amino]phenyl}-N^4-methyl-1H-imidazole-4,5-dicarboxamide]: the pIC50 was 4.67.

For `CNC(=O)c1nc[nH]c1C(=O)Nc1ccc(NC(=O)c2cccc(C)c2)cc1` [Example 336, N^4-methyl-N^5-{4-[(3-methylbenzoyl)amino]phenyl}-1H-imidazole-4,5-dicarboxamide], the negative logarithm of the IC50 (pIC50) was 4.96.

Regarding `CNC(=O)c1nc[nH]c1C(=O)Nc1ccc(NC(=O)c2ccc(C)cc2)cc1` [Example 337, N^4-methyl-N^5-{4-[(4-methylbenzoyl)amino]phenyl}-1H-imidazole-4,5-dicarboxamide], the pIC50 was 4.63.

In the case of `CNC(=O)c1nc[nH]c1C(=O)Nc1ccc(NC(=O)c2ccc(OC)c(F)c2)cc1` [Example 338, N^5-{4-[(3-fluoro-4-methoxybenzoyl)amino]phenyl}-N^4-methyl-1H-imidazole-4,5-dicarboxamide], the pIC50 was 5.55.

As to `CNC(=O)c1nc[nH]c1C(=O)Nc1ccc(NC(=O)c2ccccc2N(C)C)cc1` [Example 339, N^5-(4-{[2-(dimethylamino)benzoyl]amino}phenyl)-N^4-methyl-1H-imidazole-4,5-dicarboxamide], the pIC50 was 4.34. Against the preceding compound, the pIC50 is 1.21 log units lower.

As for `CNC(=O)c1nc[nH]c1C(=O)Nc1ccc(NC(=O)c2cncs2)cc1` [Example 345, N^4-methyl-N^5-{4-[(1,3-thiazol-5-ylcarbonyl)amino]phenyl}-1H-imidazole-4,5-dicarboxamide], the pIC50 was 4.30.

Compound `CNC(=O)c1nc[nH]c1C(=O)Nc1ccc(NC(=O)c2cc(F)cc(F)c2F)cc1` [Example 347, N^4-methyl-N^5-{4-[(2,3,5-trifluorobenzoyl)amino]phenyl}-1H-imidazole-4,5-dicarboxamide] showed a pIC50 of 4.46.

Consider `CNC(=O)c1nc[nH]c1C(=O)Nc1ccc(NC(=O)c2ccc(OC)c(OC)c2Cl)cc1` [Example 348, N^5-{4-[(2-chloro-3,4-dimethoxybenzoyl)amino]phenyl}-N^4-methyl-1H-imidazole-4,5-dicarboxamide], for which the pIC50 was 5.15. This pIC50 lies 0.69 log units higher than the previous one.

Turning to `CNC(=O)c1nc[nH]c1C(=O)Nc1ccc(NC(=O)c2ccc(C#N)c(F)c2)cc1` [Example 350, N^5-{4-[(4-cyano-3-fluorobenzoyl)amino]phenyl}-N^4-methyl-1H-imidazole-4,5-dicarboxamide], the pIC50 is 5.19. This pIC50 and that of the compound before are within 0.2 log units of each other.
